Reference: publication PMC2798750, “Caenorhabditis elegans N-glycan Core β-galactoside Confers Sensitivity towards Nematotoxic Fungal Galectin CGL2” (PLoS Pathogens, 2010)

Molecular target: CGL2 (Coprinopsis cinerea, UniProt Q9P4R8)
Experiment: biochemical

Sequence of CGL2 (Q9P4R8 whole entry, looked up): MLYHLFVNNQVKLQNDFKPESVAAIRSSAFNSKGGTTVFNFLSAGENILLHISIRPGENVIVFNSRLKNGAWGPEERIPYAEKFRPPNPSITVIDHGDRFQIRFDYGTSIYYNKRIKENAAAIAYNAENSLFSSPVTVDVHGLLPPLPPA

Compound: CC(=O)N[C@H]1[C@H](OCCCCCN)O[C@H](CO[C@@H]2O[C@@H](C)[C@@H](O[C@@H]3O[C@H](CO)[C@H](O)[C@H](O)[C@H]3O)[C@@H](O)[C@@H]2O)[C@@H](O)[C@@H]1O [Galβ1,4Fucα1,6GlcNAcβOC5H10NH2]
- Kd: ~100 µM
